In article PMC5321741, “Arylmethylamino steroids as antiparasitic agents” (Nature Communications, 2017):

Tests used:
Assay type in all cases: cell-based
K-562 = test: antiproliferative activity on K-562 cells; conditions: Homo sapiens, K562, 72 h
Procedure, shortened: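 K-562 and HeLa seeded at ∼10,000 cells/well; HeLa preincubated 48 h without compound before cytotoxicity testing. 72 h exposure at 37 °C, 5% CO2; K-562 counted by electronic cell analyzer, HUVEC and HeLa glutaraldehyde-fixed, methylene blue-stained, OD 660 nm; GI50 (antiproliferative) and CC50 (cytotoxicity) derived.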

[1] = test system: Bacillus subtilis JMRC:STI:10880; test: agar diffusion inhibition zone test; conditions: 1o, ciprofloxacin 5 µg/ml, solvent DMSO 12P
Experimental: (§1) The following organisms were tested at the Hans Knöll Institute in Jena, for their susceptibility to the compounds 1o and 2o: Bacillus subtilis JMRC:STI:10880, Staphylococcus aureus JMRC:ST:10760, Escherichia coli JMRC:ST:33699, Pseudomonas aeruginosa JMRC:ST:33772, Pseudomonas aeruginosa JMRC:ST:337721, Staphylococcus aureus JMRC:ST:33793 (multi-resistant), Enterococcus faecalis JMRC:ST:33700 (Vancomycin-resistant), Mycobacterium vaccae JMRC:STI:10670, Sporobolomyces salmonicolor (Basidiomycetes yeast) JMRC:ST:35974, Candida albicans (Ascomycetes yeast) JMRC:STI:25000, Penicillium notatum JMRC:STI:50164.
(§2) The bacteria were propagated in Mueller Hinton Broth (Oxoid)[49]. Yeast was propagated in YPD (yeast extract peptone dextrose): 1% yeast extract, 10 g; 2% peptone, 20 g; 2% agar, 20 g; 2% dextrose (glucose), 20 g; Sigma-Y1375. All bacteria and yeast suspensions were freshly made. The cultures were incubated at 37 °C for 16 h. Afterwards, the bacteria concentration from each culture was determined, and 34 ml of nutrient agar was loaded with 10^7 cells. These cultures were stored at 6-8 °C and could be used for seven days for the preparation of test plates. 34 ml of nutrient agar was liquefied and inoculated with the calculated amount of inoculum bacteria suspension at 48–50 °C, a temperature suitable for vegetative forms of bacteria. The inoculated nutrient media (34 ml each) were immediately poured into the prepared test plates (3 mm layer). With a punching device, 12 holes per test plate were punched out. For inhibiting bacterial growth, ciprofloxacin was used as a reference substance. The test substances were dissolved in distilled water, and 5 μg ml^−1 and 50 μl was added to each bacterial culture. For inhibition of fungal growth, amphotericin B served as the reference substance. The test substances were diluted to 10 μg ml^−1 in DMSO/methanol; 50 μl was added to each culture.
(§3) Configuring the test plate; volumes/punched hole: 50 μl; test solutions/test plate: 1 × 50 μl reference substance. Test plates were cultivated for 18 h at 37 °C. Analysis: Reading the inhibition zones (IZ): As IZ, the zone in which no growth can be determined with the naked eye is measured; the tiniest colonies on the edge of the inhibition zone were therefore not taken into consideration. The diameter (φ) of the IZ is measured in mm. The analysis of IZ φ is carried out internationally with the help of statistic procedures, especially regression analysis. With each test approach, the reference substance was brought along as a control; if there were deviations from allowed IZ φ, the test was repeated.
(§4) The inhibition of bacterial growth was determined using bacterial cultures grown in Müller-Hinton Bouillon, which was configured at barely visible opacity with the McFarland Standard Nr. 0.5, which indicates a bacterial density of 10^8 ml^−1. This bacterial suspension was diluted with Müller-Hinton Bouillon using 2-fold dilution series in the agar diffusion test.
(§5) Analysis: The growth in the inhibition zones around the holes containing active substances is thereby compared with the growth in the growth control (no active substance). Bacterial growth was determined according to four measurements: p=presence of colonies in the inhibition zone, P=presence of many colonies in the inhibition zone, A=indication of inhibition, F=facilitation.

[2] = test system: Enterococcus faecalis JMRC:ST:33700 (Vancomycin-resistant); test: agar diffusion inhibition zone test; conditions: 1o, ciprofloxacin 5 µg/ml, solvent DMSO 12P
Experimental: as §1, §2, §3, §4, §5

[3] = test system: Escherichia coli JMRC:ST:33699; test: agar diffusion inhibition zone test; conditions: 1o, 2o 1,000 µg/ml in DMSO; ciprofloxacin 5 µg/ml; solvent DMSO 13P
Experimental: as §1, §2, §3, §4, §5

[4] = test system: Mycobacterium vaccae JMRC:STI:10670; test: agar diffusion inhibition zone test; conditions: 1o, 2o 1,000 µg/ml in DMSO; ciprofloxacin 5 µg/ml; solvent DMSO 13P
Experimental: as §1, §2, §3, §4, §5

[5] = test system: Penicillium notatum JMRC:STI:50164; test: agar diffusion inhibition zone test; conditions: 1o, 2o 1,000 µg/ml in DMSO, amphotericin B 10 µg/ml, solvent DMSO 13p
Experimental: as §1, §2, §3, §4, §5

[6] = test system: Pseudomonas aeruginosa JMRC:ST:337721; test: agar diffusion inhibition zone test; conditions: 1o, ciprofloxacin 5 µg/ml, solvent DMSO 16P
Experimental: as §1, §2, §3, §4, §5

[7] = test system: Pseudomonas aeruginosa JMRC:ST:33772; test: agar diffusion inhibition zone test; conditions: 1o, ciprofloxacin 5 µg/ml, solvent DMSO 13P
Experimental: as §1, §2, §3, §4, §5

[8] = test system: Sporobolomyces salmonicolor JMRC:ST:35974; test: agar diffusion inhibition zone test; conditions: 1o, 2o 1,000 µg/ml in DMSO; amphotericin B 10 µg/ml; solvent DMSO 20p
Experimental: as §1, §2, §3, §4, §5

[9] = test system: Staphylococcus aureus JMRC:ST:10760; test: agar diffusion inhibition zone test; conditions: 1o, ciprofloxacin 5 µg/ml, solvent DMSO 12P
Experimental: as §1, §2, §3, §4, §5

[10] = test system: Staphylococcus aureus JMRC:ST:33793 (multi-resistant); test: agar diffusion inhibition zone test; conditions: 1o, ciprofloxacin 5 µg/ml, solvent DMSO 12P
Experimental: as §1, §2, §3, §4, §5

Structure (SMILES)	GI50 (K-562) [µM]	inhibition zone diameter, Bacillus subtilis (B1) ([1]; 2o 1,000 µg/ml in DMSO) [mm]	inhibition zone diameter, VRSA Enteroc. faecalis (R10) ([2]; 2o 1,000 µg/ml in DMSO) [mm]	inhibition zone diameter, Escherichia coli (B4) [3] [P]	inhibition zone diameter, Mycobac. vaccae (M4) [4] [p]	inhibition zone diameter, Penicillium notatum (P1) [5] [mm]	inhibition zone diameter, Pseudomonas aeruginosa JMRC:ST:337721 (B9) ([6]; 2o 1,000 µg/ml in DMSO) [mm]	inhibition zone diameter, Pseudomonas aeruginosa JMRC:ST:33772 (B7) ([7]; 2o 1,000 µg/ml in DMSO) [mm]	inhibition zone diameter, Sporobolo. salmonicolor (H4) [8] [p]	inhibition zone diameter, Staphylococcus aureus (B3) ([9]; 2o 1,000 µg/ml in DMSO) [mm]	inhibition zone diameter, MRSA Staph. aureus (R9) ([10]; 2o 1,000 µg/ml in DMSO) [mm]	zone of inhibition ([1]; Bacillus subtilis, read-out: inhibition zone diameter, Bacillus subtilis (B1)) [mm]	zone of inhibition ([2]; read-out: inhibition zone diameter, VRSA Enteroc. faecalis (R10)) [mm]	zone of inhibition at 1000 µg/mL ([5]; Penicillium chrysogenum, read-out: inhibition zone diameter, Penicillium notatum (P1)) [mm]	zone of inhibition ([6]; Pseudomonas aeruginosa, read-out: inhibition zone diameter, Pseudomonas aeruginosa JMRC:ST:337721 (B9)) [mm]	zone of inhibition ([7]; Pseudomonas aeruginosa, read-out: inhibition zone diameter, Pseudomonas aeruginosa JMRC:ST:33772 (B7)) [mm]	zone of inhibition ([9]; Staphylococcus aureus, read-out: inhibition zone diameter, Staphylococcus aureus (B3)) [mm]	zone of inhibition ([10]; Staphylococcus aureus, MRSA, read-out: inhibition zone diameter, MRSA Staph. aureus (R9)) [mm]
COc1ccc2c(c1)CCC1C2CC[C@@]2(C)C1CC[C@H]2NCc1cc2ccccc2cc1O (stereo partly shown) [1o]	5	0	0	15	18	0	0	0	22	0	0	–	–	–	–	–	–	–
COc1ccc2c(c1)CCC1C2CC[C@@]2(C)C1CC[C@@H]2NCc1cc2ccccc2cc1O (stereo partly shown) [2o]	2.5	–	–	16	17	–	–	–	24	–	–	0	0	0	0	0	0	0
